According to ChEMBL document CHEMBL1781974, “Novel 4,4-disubstituted piperidine-based C-C chemokine receptor-5 inhibitors with high potency against human immunodeficiency virus-1 and an improved human ether-a-go-go related gene (hERG) profile” (J Med Chem, 2011):

Tests used:
Cynomolgus monkey = conditions: in vivo, po, 10 mg/kg
[1] = Dissociation constant, pKa of the compound; type: physicochemical
in vivo = conditions: rat, iv
[2] = AUC in male rat at 2000 mg/kg/day, iv; type: ADME, organism-based; parameters: route intravenous; conditions: plasma
[3] = AUC in female rat at 2000 mg/kg/day, iv; type: ADME, organism-based; parameters: route intravenous; conditions: plasma
[4] = AUC in male dog at 250 mg/kg/day, iv; type: ADME, organism-based, Canis lupus familiaris; parameters: route intravenous; conditions: plasma
[5] = AUC in female dog at 250 mg/kg/day, iv; type: ADME, organism-based, Canis lupus familiaris; parameters: route intravenous; conditions: plasma

SMILES | clearance (in vivo) [mL/min/kg] | further results
Cc1nc2ccccc2n1C1CC2CCC(C1)N2CCC1(c2cccc(F)c2)CCN(C(=O)c2cc(NS(C)(=O)=O)c(F)cc2Cl)CC1 (centres undefined) |  | AUC/dose (Cynomolgus monkey): 59 ng·h/mL
Cc1nc2ccccc2n1[C@H]1C[C@H]2CC[C@@H](C1)N2CCC1(c2ccccc2)CCN(C(=O)C(C)(C)C)CC1 |  | pKa [1]: 10.7
Cc1nc2ccccc2n1C1CC2CCC(C1)N2CC(=O)C1(c2ccccc2)CCN(C(=O)C(C)(C)C)CC1 (centres undefined) |  | pKa [1]: 6.37
Cc1nc2ccccc2n1C1CC2CCC(C1)N2CCC1(c2cccc(F)c2)CCN(C(=O)C(C)(C)C)CC1 (centres undefined) | 24 | 
Cc1nc2ccccc2n1C1CC2CCC(C1)N2CCC1(c2cccc(F)c2)CCN(C(=O)C2(C(=O)O)CCC2)CC1 (centres undefined) | 136 | 
Cc1nc2ccccc2n1C1CC2CCC(C1)N2CCC1(c2ccccc2)CCN(C(=O)c2ccccc2C(=O)O)CC1 (centres undefined) | 114 | 
Cc1nc2ccccc2n1C1CC2CCC(C1)N2CCC1(c2ccccc2)CCN(C(=O)c2cccc(C(=O)O)c2)CC1 (centres undefined) | 62 | 
Cc1nc2ccccc2n1C1CC2CCC(C1)N2CCC1(c2ccccc2)CCN(C(=O)C(C)(C)c2nnn[nH]2)CC1 (centres undefined) | 156 | 
Cc1nc2ccccc2n1C1CC2CCC(C1)N2CCC1(c2ccccc2)CCN(C(=O)C(C)(C)C(=O)NS(C)(=O)=O)CC1 (centres undefined) | 53 | 
Cc1nc2ccccc2n1C1CC2CCC(C1)N2CCC1(c2ccccc2)CCN(C(=O)c2ccc3c(c2)CC(=O)NS3(=O)=O)CC1 (centres undefined) | 26 | 
Cc1nc2ccccc2n1C1CC2CCC(C1)N2CCC1(c2ccccc2)CCN(C(=O)c2ccc(Cl)c(S(N)(=O)=O)c2)CC1 (centres undefined) | 31 | 
Cc1nc2ccccc2n1C1CC2CCC(C1)N2CCC1(c2cccc(F)c2)CCN(C(=O)c2ccc(Cl)c(S(N)(=O)=O)c2)CC1 (centres undefined) | 26.8 | 
Cc1cccc(C2(CCN3C4CCC3CC(n3c(C)nc5ccccc53)C4)CCN(C(=O)c3ccc(Cl)c(S(N)(=O)=O)c3)CC2)c1 (centres undefined) | 28.3 | 
CNS(=O)(=O)c1cc(C(=O)N2CCC(CCN3C4CCC3CC(n3c(C)nc5ccccc53)C4)(c3cccc(F)c3)CC2)c(Cl)cc1F (centres undefined) |  | AUC [2]: 77000 ng·h/mL; AUC [3]: 160000 ng·h/mL; AUC [4]: 17200 ng·h/mL; AUC [5]: 34900 ng·h/mL; AUC/dose (Cynomolgus monkey): 38 ng·h/mL
Cc1nc2ccccc2n1C1CC2CCC(C1)N2CCC1(c2cccc(F)c2)CCN(C(=O)c2c(F)ccc(NS(C)(=O)=O)c2F)CC1 (centres undefined) |  | AUC/dose (Cynomolgus monkey): 19.9 ng·h/mL
